Patent US20220089592A1, “IMIDAZO[1,2-A]PYRIDINYL DERIVATIVES AS IRAK4 INHIBITORS” (priority 2019, published 2022)

Biological target: T1, IRAK4 (Homo sapiens, UniProt Q9NWZ3)
T1 sequence (Q9NWZ3 1-460): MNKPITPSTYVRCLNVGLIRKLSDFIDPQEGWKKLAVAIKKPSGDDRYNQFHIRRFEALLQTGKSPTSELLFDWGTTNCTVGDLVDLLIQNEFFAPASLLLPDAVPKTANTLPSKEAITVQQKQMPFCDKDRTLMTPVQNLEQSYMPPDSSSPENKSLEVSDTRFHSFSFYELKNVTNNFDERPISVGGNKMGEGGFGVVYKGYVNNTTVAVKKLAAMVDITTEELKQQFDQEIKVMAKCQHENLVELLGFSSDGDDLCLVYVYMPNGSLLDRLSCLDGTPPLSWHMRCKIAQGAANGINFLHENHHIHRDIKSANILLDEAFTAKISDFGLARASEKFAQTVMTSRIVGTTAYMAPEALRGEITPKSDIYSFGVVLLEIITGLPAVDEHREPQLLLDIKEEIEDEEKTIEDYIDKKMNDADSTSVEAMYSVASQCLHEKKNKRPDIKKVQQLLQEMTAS
Test: 2-hour 1 mM ATP IRAK4 Biochemical assay (as above, but with 100 pM IRAK4 and 1 mM ATP)
Conditions: IRAK4 MSD BIOCHEMICAL (1 mM ATP) IC50 (μM), 100 pM IRAK4, 2 hours
Method in brief: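 Run with 100 pM IRAK4 and 1 mM ATP for 2 hours, quenched with EDTA pH 8. Phosphorylated biotinylated peptide captured on streptavidin MSD plates and detected with anti-phosphothreonine antibody plus Sulfo-Tag secondary by electrochemiluminescence.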

IC50 [µM] | Structure (SMILES)
0.014 | COc1nc(NC(=O)c2cccc(C(C)C)n2)cn2cc(C3CCOCC3)nc12 [Example 456, 6-isopropyl-N-(8-methoxy-2-(tetrahydro-2H-pyran-4-yl)imidazo[1,2-a]pyrazin-6-yl)picolinamide]
0.096 | COc1ccccc1C(=O)Nc1cn2cc(C3CCOCC3)nc2c(OC)n1 [Example 457, 2-methoxy-N-(8-methoxy-2-(tetrahydro-2H-pyran-4-yl)imidazo[1,2-a]pyrazin-6-yl)benzamide 2,2,2-trifluoroacetate]
0.036 | COc1ncccc1C(=O)Nc1cn2cc(C3CCOCC3)nc2c(OC)n1 [Example 458, 2-methoxy-N-(8-methoxy-2-(tetrahydro-2H-pyran-4-yl)imidazo[1,2-a]pyrazin-6-yl)nicotinamide 2,2,2-trifluoroacetate]
0.022 | CCOc1ncccc1C(=O)Nc1cn2cc(C3CCOCC3)nc2c(OC)n1 [Example 459, 2-ethoxy-N-(8-methoxy-2-(tetrahydro-2H-pyran-4-yl)imidazo[1,2-a]pyrazin-6-yl)nicotinamide]
0.025 | CCCOc1ncccc1C(=O)Nc1cn2cc(C3CCOCC3)nc2c(OC)n1 [Example 460, N-(8-methoxy-2-(tetrahydro-2H-pyran-4-yl)imidazo[1,2-a]pyrazin-6-yl)-2-propoxynicotinamide]
0.095 | COc1nc(NC(=O)c2ccn(C(C)C)n2)cn2cc(C3CCOCC3)nc12 [Example 462, 1-isopropyl-N-(8-methoxy-2-(tetrahydro-2H-pyran-4-yl)imidazo[1,2-a]pyrazin-6-yl)-1H-pyrazole-3-carboxamide 2,2,2-trifluoroacetate]
0.104 | CCn1ccc(C(=O)Nc2cn3cc(C4CCOCC4)nc3c(OC)n2)n1 [Example 463, 1-ethyl-N-(8-methoxy-2-(tetrahydro-2H-pyran-4-yl)imidazo[1,2-a]pyrazin-6-yl)-1H-pyrazole-3-carboxamide 2,2,2-trifluoroacetate]
0.205 | COc1nc(NC(=O)c2ccn(CC(C)C)n2)cn2cc(C3CCOCC3)nc12 [Example 464, 1-isobutyl-N-(8-methoxy-2-(tetrahydro-2H-pyran-4-yl)imidazo[1,2-a]pyrazin-6-yl)-1H-pyrazole-3-carboxamide]
0.037 | COc1ccccc1C(=O)Nc1cn2cc(C34CCC(C)(C3)OC4)nc2c(OC)n1 (stereo not shown) [Example 465, 2-methoxy-N-(8-methoxy-2-(1-methyl-2-oxabicyclo[2.2.1]heptan-4-yl)imidazo[1,2-a]pyrazin-6-yl)benzamide 2,2,2-trifluoroacetate]
0.059 | COc1c(F)cccc1C(=O)Nc1cn2cc(C34CCC(C)(C3)OC4)nc2c(OC)n1 (stereo not shown) [Example 466, 3-fluoro-2-methoxy-N-(8-methoxy-2-(1-methyl-2-oxabicyclo[2.2.1]heptan-4-yl)imidazo[1,2-a]pyrazin-6-yl)benzamide 2,2,2-trifluoroacetate]
0.051 | COc1nc(NC(=O)c2cccc(C)c2F)cn2cc(C34CCC(C)(C3)OC4)nc12 (stereo not shown) [Example 467, 2-fluoro-N-(8-methoxy-2-(1-methyl-2-oxabicyclo[2.2.1]heptan-4-yl)imidazo[1,2-a]pyrazin-6-yl)-3-methylbenzamide 2,2,2-trifluoroacetate]
0.022 | COc1ncccc1C(=O)Nc1cn2cc(C34CCC(C)(C3)OC4)nc2c(OC)n1 (stereo not shown) [Example 468, 2-methoxy-N-(8-methoxy-2-(1-methyl-2-oxabicyclo[2.2.1]heptan-4-yl)imidazo[1,2-a]pyrazin-6-yl)nicotinamide 2,2,2-trifluoroacetate]
0.008 | COc1nc(NC(=O)c2cccc3c2OCC3)cn2cc(C34CCC(C)(C3)OC4)nc12 (stereo not shown) [Example 469, N-(8-methoxy-2-(1-methyl-2-oxabicyclo[2.2.1]heptan-4-yl)imidazo[1,2-a]pyrazin-6-yl)-2,3-dihydrobenzofuran-7-carboxamide 2,2,2-trifluoroacetate]
